Test results reported in patent US11583528B2, “FFA1 (GPR40) as a therapeutic target for neural angiogenesis diseases or disorders” (Children's Medical Center Corporation, priority 2016, dated 2023).
Entries after “also recorded” stand apart in the source; their conditions may differ.

Legend:
photoreceptors (661W) [1] = assay: Oxygen consumption and extracellular acidification rates of photoreceptor (661W) cells (Seahorse XFe96); type: cell-based
Procedure: (§1) All oxygen consumption rates were measured using a Seahorse XFe96 Flux Analyzer®. Whole retinas were isolated and 1 mm punch biopsies were loaded into the 96 well plate. Retinal punches were incubated in assay media (DMEM 5030 media supplemented with 12 mM glucose, 10 mM HEPES and 26 mM NaHCO3) to measure oxygen consumption rates (OCR) and extracellular acidification rates (ECAR). Photoreceptor (661W) cells, were incubated in their assay media (DMEM 5030, 12 mM glucose, 10 mM HEPES) one hour prior to measurements. Fatty acid oxidation rates were determined by treating tissues or cells with Etomoxir (40 μM; Sigma) 40 min prior to analysis and then providing BSA (control) or BSA/Palmitate conjugate (Seahorse). Glucose oxidation rates were measured after injection of 2-deoxyglucose (2-DG, 100 mM; Sigma) or media control during data acquisition. To determine the maximal fatty acid or glucose oxidative capacity, the nonmitochondrial respiration (rate after injection of 2 μM Rotenone and 2 μM Antimycin A) was subtracted from the oxygen consumption rate after injection of 0.5 μM carbonyl cyanide-ptrifluoromethoxyphenylhydrazone (FCCP).

pancreatic β-cell = conditions: by reducing β-cell overload; cited from earlier work
Vldlr−/− mice = assay: Quantification of RAP-like retinal vascular lesions in Vldlr−/− mice; type: in vivo, mouse; conditions: Vldlr−/− pups treated from P8 to P15, lesions quantified at P16, versus vehicle control
Description: (§2) All studies adhered to the NIH guide for the Care and Use of laboratory animals, the Association for Research in Vision and Ophthalmology (ARVO) Statement for the Use of Animals in Ophthalmic and Vision Research and were approved by the Institutional Animal Care and Use Committee at Boston Children's Hospital. Vldlr knockout mice (Vldlr^−/−; Jackson Lab Stock: 002529) were crossed with wild type C57Bl/6 mice to obtain heterozygous breeders for littermate controlled experiments. Vldlr^−/− mice were also crossed with Ffar1 knockout mice (Ffar1^−/−)^1 to ultimately obtain Vldlr^−/−/Ffar1^−/+ heterozygous breeders and double knockout mice (Vldlr^−/−/Ffar1^−/−). Pups weighing less than 5 grams or more than 7 grams at postnatal day (P)16 were excluded (Stahl, A., et al. Am J Pathol 177, 2715-2723 (2010)). Littermate Vldlr^−/− pups were treated from P8 to P15 with WY164363 (50 mg/kg once daily, intraperitoneal; Sigma), GW9508 (14 μM, once daily intraperitoneal; Cayman), TAK-875 (15 mg/kg twice daily, gavage; Selleckchem), medium chain triglyceride oil (MCT, 20 μL once daily gavage; Nestle) or corresponding vehicle and sacrificed at P16 to quantify retinal vascular lesions. Mice pups of both genders were used.
For quantification of outer retina vascular lesions, reminiscent of retinal angiomatous proliferation (RAP) or macular telangiectasia (MacTel), mice were euthanized with a mixture of xylazine and ketamine and eyes were enucleated and fixed in 4% paraformaldehyde for 1 h at room temperature. […] For quantification of retinal lesions 20 images of each whole-mounted retina were obtained at 10× magnification on a Zeiss AxioObserver.Z1 microscope and merged to form one image using AxioVision 4.6.3.0 software. Vascular lesion counts were analyzed using the SWIFT_MACTEL method, an adaptation of the method used to measure neovascularization (SWIFT_NV) (Stahl, A., et al. Angiogenesis 12, 297-301 (2009) in the oxygen induced retinopathy model. […]

WT and Vldlr−/− mice = assay: Retinal glucose uptake (3H-2-deoxyglucose tracer) in treated pups; type: in vivo, mouse; conditions: WT and Vldlr−/− retinas; GW9508 14 μM daily i.p. for 5 days (P7-P12)
Procedure: Positron emission tomography (PET) imaging studies were performed on WT, Vldlr^−/−/Ffar1^−/and Ffar1^−/− mice (P16; Focus 120 high-resolution, Siemens), followed by micro CAT imaging (MicroCAT II scanner, Siemens). Fluorine-18 fluorodeoxyglucose FDG) was administered by intraperitoneal injection (i.p.) to obtain nontoxic radioactivity levels (3.7 and 37 MBq; or 0.1 to 1.0 mCi). Actual administered activity was determined using a dose calibrator to measure activity in the syringe before and after the injection. Images were acquired 60 minutes after injection to ensure radiotracer uptake. Mice were fasted for 6 hours prior to imaging, kept in darkness and anesthetized by inhalation of isoflurane (2-4%) through a nose cone for the duration of the procedure. Animals were imaged in a head first, prone position, and placed on a heating pad to maintain appropriate body temperature. Upon completion of imaging, mice were euthanized and retinas were dissected for precise ^18F-FDG retinal activity, quantification by gamma counter, and corrected for decay. […] Retinas were collected and homogenized in a scintillation cocktail (Ecolite+, MP biomedicals) and betacounts measured using the LS6500 Multipurpose Scintillation Counter (Beckman).

Glut1 [2] = assay: Retinal Glut1 expression after in vivo treatment (qRT-PCR / Western blot); design: species or system mouse; conditions: versus control
Description: as §2, with “Pups weighing less than 5 grams or more than 7 grams at postnatal day (P)16 were excluded (Stahl, A., et al. Am J Pathol 177, 2715-2723 (2010)).” left out, “Mice pups of both genders were used.” left out
Retinal samples were obtained as described above. […] Densitometry was analyzed using ImageJ. Retinal Vegfa concentration was measured by ELISA (as per manual, MMV00, R&D Systems) and normalized by doing a Bradford to measure the total cell protein content of each samples.

Hif1α [3] = assay: Retinal Hif1α stabilization after in vivo treatment (Western blot); design: species or system mouse
Procedure: (§3) Retinal samples were obtained as described above. Retinal lysate (20 μg) from three different animals or endothelial cells lysate (10 μg) were loaded on an SDS-PAGE gel and electroblotted onto a PVDF membrane. After blocking, the membranes were incubated with antibodies against β-Actin (Sigma, A1978), Hif1α (Novus, NB100-134), and Glut1 (Novus, NB300-666 and Abcam, Ab652) overnight (1:1000 each). After washing, membranes were incubated with 1:10,000 horseradish peroxidase-conjugated anti-rabbit or anti-mouse secondary antibodies (Amersham, NA931V and NA934V) for one hour at room temperature. Densitometry was analyzed using ImageJ. Retinal Vegfa concentration was measured by ELISA (as per manual, MMV00, R&D Systems) and normalized by doing a Bradford to measure the total cell protein content of each samples.

Hif1α [4] = assay: Hif1α protein in photoreceptor (661W) cells (Western blot); type: cell-based; conditions: 661W photoreceptors, 8 hours post-treatment
Procedure: as §3
(§4) Cone photoreceptor cells (al-Ubaidi, M. R., J Cell Biol 119, 1681-1687 (1992), and Tan, E., et al. Invest Ophthalmol Vis Sci 45, 764-768 (2004)) (661W; from Dr. Al-Ubaidi) were cultured as monolayers at 37° C., 5% CO2 in a humidified atmosphere in DMEM with FBS 10% supplemented with hydrocortisone (20 μg/500 mL, H-2270, Sigma), Progesterone (20 μg/500 mL, P-8783, Sigma), Putrescine (0.016 g/500 mL, P-7505, Sigma) and β-mercaptoethanol (20 μL/500 mL, M-6250, Sigma). Equal number of 661W cells (0.3×106) were plated in 6-well dishes and cultured to 80% confluence. […]

Glut1 [5] = assay: Glut1 expression in photoreceptor (661W) cells; type: cell-based; conditions: 661W photoreceptors
Procedure: RNA samples from cell culture, whole retina or laser-captured neovessels and layers were treated with DNase I (Qiagen, Chatsworth, Calif.) to remove any contaminating genomic DNA. The DNase-treated RNA was then converted into cDNA using reverse transcriptase (Invitrogen). PCR primers for target genes and the control gene, cyclophilin A, were designed using Primer Bank and NCBI Primer Blast software. Quantitative analysis of gene expression was generated using an ABI Prism 7700 Sequence Detection System with the SYBR Green Master mix kit and gene expression was calculated relative to cyclophilin A using the ΔcT method.
as §4, with “[…] Photoreceptors” for “Equal number of 661W cells (0.3×106)”, “then collected 8 hours post-treatment for Hif1α protein expression (see Western blot); while their medium was collected at 12 hours for Vegfa quantification by ELISA (as per manual, MMV00, R&D Systems).” for “plated in 6-well dishes and cultured to 80% confluence.”

photoreceptors (661W) [6] = assay: Glucose uptake of photoreceptor (661W) cells; type: cell-based; conditions: 661W photoreceptors
Procedure: Whole retinas and photoreceptors (661W) were incubated in assay media (DMEM 5030, 12 mM glucose, 10 mM HEPES) for 6 and 48 hours respectively. Media was collected, spun briefly (13 g) to remove cellular debris, and glucose and lactate levels measured using a Yellow Springs Instrument (YSI) 2950 were compared to control media that was not exposed to tissue or cells. To determine the conversion of glucose to lactate (the glycolytic rate), lactate production was divided by glucose uptake.

retinas = assay: Oxygen consumption rate of ex vivo retinas (Seahorse XFe96); type: cell-based, mouse; conditions: WT retinal explants with palmitate, etomoxir 40 μM
Procedure: as §1

CCCCCCCN(CCc1ccc(SC(C)(C)C(=O)O)cc1)C(=O)Nc1ccc(F)cc1F [GW9578]
extracellular acidification rate (ECAR), reflecting lactate production from glycolysis (photoreceptors (661W) [1]; 661W photoreceptors, GW9578 100 nM, 48 hours): without significantly affecting; also recorded: not detectably affected
mitochondrial respiration by FA β-oxidation (OCR) (photoreceptors (661W) [1]; 661W photoreceptors, palmitate, GW9578 100 nM, 48 hours): induced; also recorded: further increased

CCCCc1ccc(NS(=O)(=O)c2ccc(F)cc2)cc1 [DC260126, N-(4-Butylphenyl)-4-fluoro-benzenesulfonamide]
pancreatic β-cell dysfunction (pancreatic β-cell): protect

Cc1cccc(Nc2cc(Cl)nc(SCC(=O)O)n2)c1C [WY16463]
number of RAP-like pathologic vascular lesions (Vldlr−/− mice): reduced

O=C(O)CCc1ccc(NCc2cccc(Oc3ccccc3)c2)cc1 [GW9508]
number of RAP-like pathologic vascular lesions (Vldlr−/− mice): more than doubled
retinal glucose uptake (3H-2-DG tracer) (WT and Vldlr−/− mice): suppressed; also recorded: reduction
Glut1 expression in retina (Glut1 [2]; WT and Vldlr−/− retinas): reduces; also recorded: suppressed
Hif1α stabilization in retina (Hif1α [3]; Vldlr−/− retinas): stabilized
Hif1α stabilization in retina (Hif1α [3]; WT retinas): stabilized
Hif1α stabilization (Hif1α [4]): stabilized; also recorded: stabilization
Glut1 expression (Glut1 [5]): suppression
glucose uptake (photoreceptors (661W) [6]): decreased

CCOC(=O)[C@@]1(CCCCCCOc2ccc(Cl)cc2)CO1 [Etomoxir]
mitochondrial respiration (OCR) with FA oxidation inhibitor (retinas): abrogated
effect on the increase in respiration (OCR) (photoreceptors (661W) [1]; 661W photoreceptors with palmitate, etomoxir 40 μM): abrogated

COc1cccc(-c2cc(=O)c3ccccc3o2)c1N [PD98059]
effect on FFA1-mediated Glut1 suppression by GW9508 (Glut1 [5]; PD98059, 20 μM, SP600125, Ffar1 siRNA): prevented

Cc1cc(OCCCS(C)(=O)=O)cc(C)c1-c1cccc(COc2ccc3c(c2)OC[C@H]3CC(=O)O)c1 [TAK-875]
number of RAP-like pathologic vascular lesions (Vldlr−/− mice): significantly increased and more
Glut1 expression in retina (Glut1 [2]; Vldlr−/− retinas only): increased Glut1 suppression
